In patent EP4810040A2, “INHIBITORS OF APOL1 AND METHODS OF USING SAME” (priority 2020, dated 2022):
Where two headings read alike, the source gives them in different places.

Biological target: T1, APOL1 G1 (Homo sapiens, UniProt O14791, I384M/S342G)
T1 sequence (O14791 28-398 S342G/I384M): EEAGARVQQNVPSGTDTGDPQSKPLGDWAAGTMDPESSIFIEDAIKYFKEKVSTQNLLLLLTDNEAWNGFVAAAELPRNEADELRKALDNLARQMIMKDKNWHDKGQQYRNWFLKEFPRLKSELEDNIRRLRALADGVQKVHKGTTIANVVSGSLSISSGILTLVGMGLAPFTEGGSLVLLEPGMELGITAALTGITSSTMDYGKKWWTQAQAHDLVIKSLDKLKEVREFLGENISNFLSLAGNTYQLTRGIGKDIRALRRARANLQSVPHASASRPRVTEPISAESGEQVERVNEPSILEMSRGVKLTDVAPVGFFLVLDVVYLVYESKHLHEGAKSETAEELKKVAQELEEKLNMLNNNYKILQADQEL
Assay: MultiTox-Fluor Multiplex Cytotoxicity Assay, tet-inducible APOL1 G1 T-REx-HEK293 cells
Type: cell-based
Parameters: expressed in transfected cells; host or cells: T-REx HEK293, clone G1 DC3.25 (pAAVS1-Puro-APOL1 G1)
Conditions: for IC90: read-out: Multi-Tox Assay IC90; for Emax: read-out: Multi-Tox Assay Max Activity (%)
How it was run: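 T-REx-HEK293 cells carrying tet-inducible APOL1 G1 induced with 50 ng/mL tet alongside compound (top 10 µM, 10-point 3-fold, duplicate) for 24 h at 37 °C. MultiTox-Fluor dead/live protease fluorescence ratio read after 30 min; normalized to no-tet (100% viability) and tet-treated (0%) controls, then curve-fitted.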

[1] = HEK293, Multi-Tox Assay, APOL1 variant (G0/G1/G2) of the HEK293 cells not given
[2] = Multi-Tox Assay, APOL1 variant not given
[3] = Multi-Tox Assay, APOL1 variant (G0/G1/G2) not stated in Table 46
[4] = Multi-Tox Assay, APOL1 variant not stated in Table 46

Row | Structure (SMILES) | IC90 [1] [nM] | Emax [2] [%] | Multi-Tox Assay Max Activity (%) [2] [%] | IC90 [3] [nM] | Emax [4] [%]
1 | COCCn1cc([C@@H]2C[C@]3(C[C@H](C)N2)OCCc2cc(Cl)sc23)cn1 (racemic) [Compound 90] | < 50 | 100 |  |  | 
2 | C[C@H]1C[C@@]2(C[C@@H](c3cn(CC(=O)N4CCCCC4)nn3)N1)OC[C@@H](O)c1cc(Cl)sc12 [Compound 239] | 50 to 500 |  | 97.0 |  | 
3 | COc1cc(F)cc(Cn2cc([C@@H]3C[C@]4(C[C@H](C)N3)OCC(F)(F)c3cc(Cl)sc34)nn2)c1 [Compound 333] | 50 to 500 |  | 97.0 |  | 
4 | CC1CC2(CC(CO)N1)OCCc1cc(Cl)sc12 (mixture of isomers) [Compound 210, (2-chloro-6'-methyl-spiro[4,5-dihydrothieno[2,3-c]pyran-7,4'-piperidine]-2'-yl)methanol] | > 500 | 92.2 |  |  | 
5 | C[C@H]1C[C@@]2(C[C@@H](c3cn(CCC(N)=O)nn3)N1)OC[C@@H](O)c1cc(Cl)sc12 [Compound 288] | 50 to 500 |  | 97.0 |  | 
6 | CCc1cc2c(s1)C(C)COC21C[C@@H](c2cn(C)nn2)N[C@@H](C)C1 (single isomer, unassigned) [Compound 10] | < 50 |  | 99.7 |  | 
7 | CC1CC2(CC(C(C)C)N1)OCCc1cc(Cl)sc12 (mixture of isomers) [Compound 214] | 50 to 500 | 99.3 |  |  | 
8 | C[C@H]1C[C@@]2(C[C@@H](c3cn(Cc4cncs4)nn3)N1)OC[C@@H](O)c1cc(Cl)sc12 [Compound 248] | 50 to 500 |  | 101.0 |  | 
9 | CCOc1ccc([C@@H]2C[C@]3(C[C@H](C)N2)OCCc2cc(Cl)sc23)cc1O (racemic) [Compound 107] | < 50 |  | 99.7 |  | 
10 | Cc1cc(O)ncc1[C@@H]1C[C@]2(C[C@H](C)N1)OCCc1cc(Cl)sc12 (racemic) [Compound 125] | 50 to 500 |  | 99.7 |  | 
11 | [2H][13C]([2H])([2H])n1cc([C@@H]2[13CH2][C@]3(C[C@H](C)N2)OC[C@@H](O)c2cc(C(F)(F)F)sc23)nn1 [Compound 386, (2S,4S,4'S,6S)-2-methyl-6-(1-(methyl-^13C-d3)-1H-1,2,3-triazol-4-yl)-2'-(trifluoromethyl)-4',5'-dihydrospiro[piperidine-4,7'-thieno[2,3-c]pyran]-5-^13C-4'-ol] |  |  |  | < 50 | 100
12 | COc1ccc(C2CC3(CC(C)N2)OCCc2cc(Cl)sc23)nn1 (mixture of isomers) [Compound 76] | < 50 | 99.3 |  |  | 
13 | C[C@H]1C[C@@]2(C[C@@H](c3cnc(N4CCN(C)CC4)nc3)N1)OCCc1cc(Cl)sc12 (racemic) [Compound 129] | 50 to 500 |  | 100.0 |  | 
14 | Cc1noc(C)c1Cn1cc([C@@H]2C[C@]3(C[C@H](C)N2)OCC(F)(F)c2cc(Cl)sc23)nn1 [Compound 353] | < 50 |  | 100.0 |  | 
15 | CC1CC2(CC(c3ccc4c(c3)OCC(=O)N4)N1)OCCc1cc(Cl)sc12 (stereo not drawn) [Compound 39] | < 50 | 99.7 |  |  | 
16 | Cc1cc([C@@H]2C[C@]3(C[C@H](C)N2)OCCc2cc(Cl)sc23)[nH]n1 (racemic) [Compound 73] | < 50 | 99.8 |  |  | 
17 | C[C@H]1C[C@@]2(C[C@@H](c3cn(CC(C)(C)O)nn3)N1)OC[C@@H](O)c1cc(Cl)sc12 [Compound 247] | > 500 |  | 91.0 |  | 
18 | Cc1cncc([C@@H]2C[C@]3(C[C@H](C)N2)OCCc2cc(Cl)sc23)c1 (racemic) [Compound 64] | < 50 | 100 |  |  | 
19 | Cn1cc([C@@H]2C[C@]3(C[C@H](C4CC4)N2)OCCc2cc(Cl)sc23)nn1 [Compound 381, (2'R,6'S,7S)-2-chloro-2'-cyclopropyl-6'-(1-methyltriazol-4-yl)spiro[4,5-dihydrothieno[2,3-c]pyran-7,4'-piperidine]] |  |  |  | < 50 | 100
20 | Cc1ccccc1C(O)Cn1cc([C@@H]2C[C@]3(C[C@H](C)N2)OCC(F)(F)c2cc(Cl)sc23)nn1 (stereo partly drawn) [Compound 304] | 50 to 500 |  |  |  | 
21 | Cn1cc(C2CC3(CC(C(F)F)N2)OCCc2cc(C(F)(F)F)sc23)nn1 (stereo not drawn) [Compound 389, 2'-(difluoromethyl)-6'-(1-methyltriazol-4-yl)-2-(trifluoromethyl)spiro[4,5-dihydrothieno[2,3-c]pyran-7,4'-piperidine]] |  |  |  | > 500 | 99
22 | CC1COC2(C[C@@H](c3cn(C)nn3)N[C@@H](C)C2)c2cc(C(F)(F)F)sc21 (stereo partly drawn) [Compound 14] | 50 to 500 |  | 99.3 |  | 

Row | Structure (SMILES) | IC90 [1] [nM] | Emax [2] [%] | Multi-Tox Assay Max Activity (%) [2] [%] | IC90 [3] [nM] | Emax [4] [%]
23 | C[C@H]1C[C@@]2(C[C@@H](c3cn(Cc4cnccn4)nn3)N1)OC[C@@H](O)c1cc(Cl)sc12 [Compound 276] | 50 to 500 |  | 100.0 |  | 
24 | C[C@H]1C[C@@]2(C[C@@H](c3cn(CC4(CO)CCOCC4)nn3)N1)OC[C@@H](O)c1cc(Cl)sc12 [Compound 240] | > 500 |  | 95.0 |  | 
25 | C[C@H]1C[C@@]2(C[C@@H](c3cn(C[C@@H](O)CO)nn3)N1)OCC(F)(F)c1cc(Cl)sc12 [Compound 363] |  |  |  | 50 to 500 | 
26 | COc1ccc(Cn2cc([C@@H]3C[C@]4(C[C@H](C)N3)OC[C@@H](O)c3cc(Cl)sc34)nn2)cc1 [Compound 295] | 50 to 500 |  |  |  | 
27 | C[C@H]1C[C@@]2(C[C@@H](c3cccc(C(N)=O)c3)N1)OCCc1cc(Cl)sc12 (racemic) [Compound 109] | 50 to 500 |  | 100.0 |  | 
28 | C[C@@H]1CC2(C[C@H](C)N1)OCCc1cc(CC(F)F)sc12 (single isomer, unassigned) [Compound 203] | < 50 | 99.3 |  |  | 
29 | C[C@H]1C[C@@]2(C[C@@H](c3cc(C4CC4)no3)N1)OCCc1cc(Cl)sc12 (racemic) [Compound 87] | < 50 | 99.3 |  |  | 
30 | CC1CC2(CC(C3CC3(F)F)N1)OCCc1cc(Cl)sc12 (single isomer, unassigned) [Compound 212] | < 50 | 99 |  |  | 
31 | C[C@H]1C[C@@]2(C[C@@H](c3cnn4ccccc34)N1)OCCc1cc(Cl)sc12 (racemic) [Compound 117] | 50 to 500 |  |  |  | 
32 | Cc1cnc([C@@H]2C[C@]3(C[C@H](C)N2)OCCc2cc(Cl)sc23)o1 (racemic) [Compound 134] | 50 to 500 |  | 99.2 |  | 
33 | [2H]C1([2H])O[C@@]2(C[C@@H](c3cn(C)nn3)N[C@@H](C)C2)c2sc(Cl)cc2[C@]1([2H])O [Compound 385, (2S,4S,4'S,6S)-2'-chloro-4',5',5'-trideuterio-2-methyl-6-(1-methyltriazol-4-yl)spiro[piperidine-4,7'-thieno[2,3-c]pyran]-4'-ol] |  |  |  | < 50 | 100
34 | Cc1noc(C)c1Cn1cc([C@@H]2C[C@]3(C[C@H](C)N2)OC[C@@H](O)c2cc(Cl)sc23)nn1 [Compound 237] | 50 to 500 |  |  |  | 
35 | Cc1ncc([C@@H]2C[C@]3(C[C@H](C)N2)OCCc2cc(Cl)sc23)cn1 (racemic) [Compound 82] | < 50 | 99.7 |  |  | 
36 | C[C@H]1C[C@@]2(C[C@@H](c3ccnc(O)c3)N1)OCCc1cc(Cl)sc12 (racemic) [Compound 112] | < 50 |  | 100.0 |  | 
37 | Cc1ccnn1CCn1cc([C@@H]2C[C@]3(C[C@H](C)N2)OC[C@@H](O)c2cc(Cl)sc23)nn1 [Compound 274] | 50 to 500 |  | 97.0 |  | 
38 | Cc1nc([C@@H]2C[C@]3(C[C@H](C)N2)OCCc2cc(Cl)sc23)cn1C (racemic) [Compound 159] | > 500 |  | 92.2 |  | 
39 | C[C@H]1C[C@@]2(C[C@@H](c3cn(Cc4ccc(OC5CCOCC5)cc4)nn3)N1)OC[C@@H](O)c1cc(Cl)sc12 [Compound 266] | 50 to 500 |  | 100.0 |  | 
40 | C[C@H]1C[C@@]2(C[C@@H](c3cn(Cc4cccc(CO)c4)nn3)N1)OC[C@@H](O)c1cc(Cl)sc12 [Compound 271] | 50 to 500 |  | 97.0 |  | 
41 | Cc1cc(Cn2cc([C@@H]3C[C@]4(C[C@H](C)N3)OCC(F)(F)c3cc(Cl)sc34)nn2)ccn1 [Compound 336] | 50 to 500 |  |  |  | 
42 | CC(=O)Nc1ccc([C@@H]2C[C@]3(C[C@H](C)N2)OCCc2cc(Cl)sc23)cc1 (racemic) [Compound 50] | < 50 |  | 99.7 |  | 
43 | C[C@H]1C[C@@]2(C[C@@H](c3cn(C)nn3)N1)OC[C@@H](O)c1cc(Cl)sc12 [Compound 174, (2'S, 4S, 6'S, 7S)-2-chloro-2'-methyl-6'-(1-methyltriazol-4-yl)spiro[4,5-dihydrothieno[2,3-c]pyran-7,4'-piperidine]-4-ol] | < 50 | 99.8 |  |  | 
44 | CCn1cc(Cn2cc([C@@H]3C[C@]4(C[C@H](C)N3)OC[C@@H](O)c3cc(Cl)sc34)nn2)cn1 [Compound 290] | 50 to 500 |  |  |  | 
